Measurements as given in publication PMC11162469, “Discovery of RXFP2 genetic association in resistant hypertensive men and RXFP2 antagonists for the treatment of resistant hypertension” (Scientific Reports, 2024).
Bridge positions count the residues as written; N and C are the ends. Ends that are not written are not given here. I, II: the chains in the order shown.

Experiments:
[1] = target: T1, RXFP2 (Homo sapiens, UniProt Q8WXD0); assay: cell-based
[2] = target: T2, rat RXFP2 (Rattus norvegicus, UniProt F7EMH8); assay: INSL3-stimulated CYP11B1 mRNA expression in H295R stably expressing rat RXFP2; format: cell-based; design: expressed in transfected cells; conditions: 48 h of treatment; read-out: EC50 on CYP11B1 mRNA expression, H295R-rRXFP2
Experimental: (§1) RXFP2 antagonists were added to H295R-rRXFP2 before addition of INSL3 EC80 (3.5 nM) for 48 h, whereupon the cells and supernatants were collected. CYP11B1 and CYP11B2 mRNA were determined by qPCR and the RXFP2 blocker potencies were calculated (Fig. 5a). Fifteen antibodies have IC50s < 50 nM, and three of the top antibodies (1F2, 4G6, and 2D4) were selected for evaluation in steroid hormone secretion assays by ELISA.
(§2) Data entered as XY table, with x = [Inhibitor] (nM) and y = CYP11B2 or CYP11B1 fold change.

[3] = target: T2, rat RXFP2; assay: INSL3-stimulated cAMP assay in HEK293 stably expressing rat RXFP2;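 also: cAMP measured with an HitHunter kit in 384-well plates, 11-point dose–response curves up to 1 µM antibody, four-parameter variable-slope fit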
[4] = test system: rat RXFP2; assay: INSL3-stimulated cAMP assay in HEK293 with BacMam expression of rat RXFP2; format: cell-based; conditions: read-out: EC50 cAMP in HEK293 transiently expressing rat RXFP2
Experimental: Active compounds (RXFP2 HTRF IC50 < 100 µM, RXFP2 FLIPR IC50 < 100 µM) were profiled to determine selectivity and rat cross-reactivity (Fig. 2). The RXFP1 assay detected compound inhibition of relaxin EC80-induced cAMP in HEK293 transiently expressing human RXFP1 (hRXFP1). […] Only 7 of 104 compounds had rRXFP2 IC50 < 100 µM, indicating poorly conserved receptor binding sites across species. RXFP2 blockers were organized into two potential series, based on structural similarity. […] BRL-37274 and GSK618069 were identified as selective RXFP2 antagonists. […] Ultimately, poor chemical properties and low ligand efficiency limited further compound optimization (Table 1, Supplementary Figs. S6, S7).
The nucleotide sequences used in Bacmam transfections encoded RXFP protein as described in UniProt (Q9HBX9. RXFP1_human; Q8WXD0. RXFP2_human; Q5ECL0. RXFP2_rat). […]
(§3) cAMP generation was measured using the Lance Ultra cAMP kit as per manufacturer’s instructions (Perkin Elmer) in HEK293 cells transduced in tissue culture flasks with RXFP BacMam, incubated at 37 °C/5% CO2 for 18 h before assay. […] After a 30 min incubation, 4 µL of Lance detection reagent was added and the FRET signal read 1 h later using a TR-FRET-capable plate reader, with excitation at 340 nm and emission at 615 nm and 665 nm. […]

[5] = target: T1, RXFP2; assay: INSL3-stimulated cAMP assay in HEK293 with BacMam expression of human RXFP2; format: cell-based; design: expressed in transfected cells; host or cells: HEK293-MSRII, BacMam transduction (MOI 5); conditions: HTRF primary assay, read-out: EC50 cAMP in HEK293 expressing human RXFP2
From the text: A high throughput screen (HTS) assay was developed using HEK293 cells transduced with RXFP2 via baculovirus-mediated gene transfer (BacMam)[40]. […] The HTS campaign identified 104 hits across 8 clusters showing blockade of hRXFP2.
The nucleotide sequences used in Bacmam transfections encoded RXFP protein as described in UniProt (Q9HBX9. RXFP1_human; Q8WXD0. RXFP2_human; Q5ECL0. RXFP2_rat). HEK293- MSRII cells were maintained in DMEM‐F12, supplemented with 10% fetal bovine serum (FBS) and L-glutamine at 37 °C/5% CO2. HEK293 stably expressing Gα16 were maintained in DMEM‐F12, supplemented with 10% FBS, L-glutamine and selection antibiotics at 37 °C/5% CO2. Transient receptor expression was achieved using modified baculoviruses (BacMam), generated according to manufacturer’s instructions using the Bac-to-Bac system (Invitrogen, UK) encoding hRXFP1, hRXFP2 or rRXFP2. Cells were transduced with RXFP-BacMam at an optimized multiplicity of infection (MOI) of 5.
as §3

[6] = target: T1, RXFP2; assay: INSL3-stimulated cAMP assay in HEK293 stably expressing human RXFP2
[7] = target: T2, rat RXFP2; assay: INSL3-stimulated CYP11B2 mRNA expression in H295R stably expressing rat RXFP2; format: cell-based; design: expressed in transfected cells; conditions: 48 h of treatment; read-out: EC50 on CYP11B2 mRNA expression, H295R-rRXFP2
Experimental: as §1, §2

T1 sequence (Q8WXD0 whole entry): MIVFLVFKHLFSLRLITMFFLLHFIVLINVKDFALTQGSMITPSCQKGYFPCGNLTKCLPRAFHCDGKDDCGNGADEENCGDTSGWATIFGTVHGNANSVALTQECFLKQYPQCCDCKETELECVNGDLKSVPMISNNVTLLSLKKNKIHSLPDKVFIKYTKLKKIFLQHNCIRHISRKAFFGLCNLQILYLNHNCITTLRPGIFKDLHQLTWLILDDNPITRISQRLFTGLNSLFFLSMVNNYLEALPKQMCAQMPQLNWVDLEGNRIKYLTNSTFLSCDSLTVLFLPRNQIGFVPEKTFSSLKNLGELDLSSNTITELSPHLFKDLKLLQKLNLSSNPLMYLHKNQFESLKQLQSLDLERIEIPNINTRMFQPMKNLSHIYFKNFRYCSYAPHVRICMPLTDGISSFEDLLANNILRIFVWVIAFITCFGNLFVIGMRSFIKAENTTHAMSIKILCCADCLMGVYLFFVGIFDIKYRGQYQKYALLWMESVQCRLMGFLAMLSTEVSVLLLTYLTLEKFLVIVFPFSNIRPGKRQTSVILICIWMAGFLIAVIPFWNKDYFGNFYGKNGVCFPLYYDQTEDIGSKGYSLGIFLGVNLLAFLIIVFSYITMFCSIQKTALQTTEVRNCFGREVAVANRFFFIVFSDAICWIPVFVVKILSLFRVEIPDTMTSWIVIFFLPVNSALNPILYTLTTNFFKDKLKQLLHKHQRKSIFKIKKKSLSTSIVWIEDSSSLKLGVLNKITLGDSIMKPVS
T2 sequence (F7EMH8 20-737): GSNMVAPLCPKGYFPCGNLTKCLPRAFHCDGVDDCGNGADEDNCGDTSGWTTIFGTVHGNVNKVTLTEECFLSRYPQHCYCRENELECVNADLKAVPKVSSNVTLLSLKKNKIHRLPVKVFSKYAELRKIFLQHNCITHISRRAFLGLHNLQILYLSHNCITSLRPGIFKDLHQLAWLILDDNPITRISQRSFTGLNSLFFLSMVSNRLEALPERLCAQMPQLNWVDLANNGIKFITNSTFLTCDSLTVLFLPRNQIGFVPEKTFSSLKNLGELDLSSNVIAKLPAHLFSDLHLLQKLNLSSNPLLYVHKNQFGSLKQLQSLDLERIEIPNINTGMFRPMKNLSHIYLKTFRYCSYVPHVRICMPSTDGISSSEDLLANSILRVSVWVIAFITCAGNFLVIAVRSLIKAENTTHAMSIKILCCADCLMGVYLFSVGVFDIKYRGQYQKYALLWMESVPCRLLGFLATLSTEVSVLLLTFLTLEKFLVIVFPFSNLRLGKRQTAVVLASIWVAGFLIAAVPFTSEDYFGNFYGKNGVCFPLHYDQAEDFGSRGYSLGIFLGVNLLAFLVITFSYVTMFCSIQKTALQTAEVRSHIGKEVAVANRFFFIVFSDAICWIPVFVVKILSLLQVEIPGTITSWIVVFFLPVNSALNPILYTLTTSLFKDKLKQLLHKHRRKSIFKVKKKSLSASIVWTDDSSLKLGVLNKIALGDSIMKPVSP

In the case of “I: PTPEMREKLCGHHFVRALVRVCGGPRWSTEA / II: AAATNPARYCCLSGCTQQDLLTLCPY (disulfide I:10-II:11, I:22-II:24, II:10-II:15) [INSL3, Insulin-like peptide 3]”, the EC50 [1] is reported as 13.4 nM, the EC50 [2] is reported as 0.3 nM and the EC50 [3] is reported as 8.4 nM. For the same substance, the EC50 [4] was 13 nM, the EC50 [5] was 0.048 nM and the EC50 [6] was 2.9 nM. For the same substance, the EC50 [7] was 0.4 nM.
